From ChEMBL document CHEMBL3301361, “Experimental in vitro DMPK and physicochemical data on a set of publicly disclosed compounds”

What was measured:
[1] = physchem; conditions: octan-1-ol/water, pH 7.4, LogD7.4
[2] = in vitro; conditions: human, plasma, PPB

## CC(=O)Nc1ccc(-c2ccnc(Nc3ccc(N4CCOCC4)cc3)n2)cc1
[1]
  logD: 2.91
[2]
  fraction unbound at 5 h: 0.0676

## Cc1cnc(Nc2cc(N3CCN(C)CC3)nc(N[C@@H](C)c3ccc(F)cn3)n2)s1
[1]
  logD: 2.9
[2]
  fraction unbound at 5 h: 0.0467

## C[C@H](Nc1nc(Nc2ncc(C#N)s2)cc(N2CCOCC2)n1)c1ncc(F)cn1
[1]
  logD: 2.26
[2]
  fraction unbound at 5 h: 0.117

## COc1cc(Nc2ncc(C)s2)nc(N[C@@H](C)c2ncc(F)cn2)n1
[1]
  logD: 2.99
[2]
  fraction unbound at 5 h: 0.103

## Cc1cnc(Nc2cc(N3CCOCC3)nc(N[C@@H](C)c3ncc(F)cn3)n2)s1
[1]
  logD: 2.68
[2]
  fraction unbound at 5 h: 0.0736

## NC(=O)c1cnc(N[C@H]2CCCNC2)c2cc(-c3ccc(Cl)cc3)sc12
[1]
  logD: 2.78
[2]
  fraction unbound at 5 h: 0.0081

## NC(=O)c1cnc(N[C@H]2CCCNC2)c2cc(-c3ccc(Cl)c(F)c3)sc12
[1]
  logD: 2.76
[2]
  fraction unbound at 5 h: 0.0106

## CNC(=O)c1[nH]cnc1C(=O)Nc1ccc(OC)cc1
[1]
  logD: 2.2
[2]
  fraction unbound at 5 h: 0.134

## Cc1ccc(-c2csc3ncnc(O)c23)cc1
[1]
  logD: 2.59
[2]
  fraction unbound at 5 h: 0.0391

## O=C1CN(C(=O)c2ccco2)C(c2ccccc2)c2cc(Cl)ccc2N1 (stereo not drawn)
[1]
  logD: 3
[2]
  fraction unbound at 5 h: 0.101

## COc1ccc(CC(=O)Nc2nc3ccccc3[nH]2)cc1
[1]
  logD: 2.9
[2]
  fraction unbound at 5 h: 0.0374

## Nc1ccc(OCCc2ccccc2)cc1
[1]
  logD: 2.71
[2]
  fraction unbound at 5 h: 0.0343

## O=C1CN(C(=O)c2ccccc2)C(c2ccccc2)c2cc(Cl)ccc2N1 (stereo not drawn)
[1]
  logD: 3.31
[2]
  fraction unbound at 5 h: 0.0606

## CC(=O)c1cn(Cc2ccccc2)c(=O)n(Cc2ccc(F)cc2)c1=O
[1]
  logD: 3.2
[2]
  fraction unbound at 5 h: 0.0245

## O=C(CCS(=O)(=O)c1ccc(Br)cc1)NCc1ccc(F)cc1
[1]
  logD: 3.1
[2]
  fraction unbound at 5 h: 0.0428

## CNC(=O)c1cc(C(=O)c2ccc(Cl)cc2)c(Br)[nH]1
[1]
  logD: 3.1
[2]
  fraction unbound at 5 h: 0.0139

## CC(C)CCOc1ccc(N)cc1
[1]
  logD: 2.67
[2]
  fraction unbound at 5 h: 0.0676

## C[C@H](Nc1ncc(F)c(Nc2cc(C3CC3)[nH]n2)n1)c1ncc(F)cn1
[1]
  logD: 2.47
[2]
  fraction unbound at 5 h: 0.224

## COc1cc(Nc2nc(N[C@@H](C)c3ncc(F)cn3)ncc2Cl)n[nH]1
[1]
  logD: 2.53
[2]
  fraction unbound at 5 h: 0.121

## COc1cc(Nc2nc(N[C@@H](C)c3ncc(F)cn3)ncc2Br)n[nH]1
[1]
  logD: 2.6
[2]
  fraction unbound at 5 h: 0.124

## Cc1cc(Nc2nc(N[C@@H](C)c3ncc(F)cn3)ncc2Br)n[nH]1
[1]
  logD: 2.39
[2]
  fraction unbound at 5 h: 0.0854

## C[C@H](Nc1ncc(Cl)c(Nc2cc(N(C)C)[nH]n2)n1)c1ncc(F)cn1
[1]
  logD: 2.33
[2]
  fraction unbound at 5 h: 0.105

## Cc1cc(Nc2nc(N[C@@H](C)c3ncc(F)cn3)nc(N3CCOCC3)c2Cl)n[nH]1
[1]
  logD: 2.61
[2]
  fraction unbound at 5 h: 0.228

## COc1cc(Nc2cc(N3CCOCC3)nc(N[C@@H](C)c3ncc(F)cn3)n2)n[nH]1
[1]
  logD: 2.18
[2]
  fraction unbound at 5 h: 0.276

## COc1cc(Nc2nc(N[C@@H](C)c3ncc(F)cn3)nc(N3CCOCC3)c2F)[nH]n1
[1]
  logD: 2.64
[2]
  fraction unbound at 5 h: 0.253

## COc1cc(Nc2nc(N[C@@H](C)c3ncc(F)cn3)nc(N3CCOCC3)c2Cl)n[nH]1
[1]
  logD: 2.85
[2]
  fraction unbound at 5 h: 0.0784

## CCOc1cc2nnc(C(N)=O)c(Nc3cc(C)ccc3F)c2cc1N1CCN(C)CC1
[1]
  logD: 3.02
[2]
  fraction unbound at 5 h: 0.107

## Cc1cc(Nc2nc(N[C@@H](C)c3ccc(F)cn3)c(C#N)cc2F)n[nH]1
[1]
  logD: 3.11
[2]
  fraction unbound at 5 h: 0.0532

## COc1ccnc(CCc2nc3cc(Br)cnc3[nH]2)c1
[1]
  logD: 2.92
[2]
  fraction unbound at 5 h: 0.0409

## CN[C@@H](C)C(=O)N[C@H](C(=O)N(C)[C@H]1CCCN(CCc2ccccc2)C1)C1CCCCC1
[1]
  logD: 2.34
[2]
  fraction unbound at 5 h: 0.266

## CN[C@@H](C)C(=O)N[C@H](C(=O)N[C@H]1CCCN(CCc2ccccc2F)C1)C1CCCCC1
[1]
  logD: 2.51
[2]
  fraction unbound at 5 h: 0.262

## CN[C@@H](C)C(=O)N[C@H](C(=O)N[C@H]1CCCN(CCc2ccc(F)cc2)C1)C1CCCCC1
[1]
  logD: 2.39
[2]
  fraction unbound at 5 h: 0.266

## CN[C@@H](C)C(=O)N[C@H](C(=O)N[C@H]1CCCN(CCc2ccc(C(F)(F)F)cc2)C1)C(C)(C)C
[1]
  logD: 2.85
[2]
  fraction unbound at 5 h: 0.0928

## NS(=O)(=O)c1ccc(CCNc2ccc3nnc(-c4ccccc4)n3n2)cc1
[1]
  logD: 2.19
[2]
  fraction unbound at 5 h: 0.0321

## CCOc1ccccc1-c1ccc(-c2nc3ccncc3c(O)c2C#N)cc1
[1]
  logD: 3
[2]
  fraction unbound at 5 h: 0.0007

## Cc1cnc(Nc2ccc(N3CCN(C)CC3)cc2)nc1Nc1cccc(S(=O)(=O)NC(C)(C)C)c1
[1]
  logD: 2.84
[2]
  fraction unbound at 5 h: 0.0752

## CNc1c(Br)cnc2nc(-c3ccc(OCCN4CCCCC4)cc3)[nH]c12
[1]
  logD: 2.56
[2]
  fraction unbound at 5 h: 0.112

## CNc1c(Br)cnc2[nH]c(-c3ccc(S(C)(=O)=O)cc3)nc12
[1]
  logD: 2.88
[2]
  fraction unbound at 5 h: 0.0477

## CNc1c(Br)cnc2[nH]c(-c3cccc(N)c3)nc12
[1]
  logD: 2.96
[2]
  fraction unbound at 5 h: 0.0988

## CNc1c(Br)cnc2nc(-c3ccnc(N)c3)[nH]c12
[1]
  logD: 2.83
[2]
  fraction unbound at 5 h: 0.0268

## CNc1c(Br)cnc2nc(-c3ccc(OCCN4CCN(C)CC4)cc3)[nH]c12
[1]
  logD: 2.91
[2]
  fraction unbound at 5 h: 0.0383

## CNc1c(Cl)cnc2nc(-c3ccc(OCCN4CCOCC4)cc3)[nH]c12
[1]
  logD: 2.63
[2]
  fraction unbound at 5 h: 0.0191

## COc1ccc(-c2nc3c(NCCCNC(C)=O)c(Br)cnc3[nH]2)cc1
[1]
  logD: 3.28
[2]
  fraction unbound at 5 h: 0.0262

## O=c1[nH]c([C@@H]2CCCN2)nc2c1oc1ccc(Br)cc12
[1]
  logD: 2.19
[2]
  fraction unbound at 5 h: 0.051

## N#Cc1cnn2c(N)cc(-c3ccccc3)nc12
[1]
  logD: 2.48
[2]
  fraction unbound at 5 h: 0.0499

## COc1ccc(-c2cc(N)n3ncc(C#N)c3n2)cc1
[1]
  logD: 2.42
[2]
  fraction unbound at 5 h: 0.0676

## N#Cc1cnn2c(N)cc(-c3ccc(F)cc3)nc12
[1]
  logD: 2.23
[2]
  fraction unbound at 5 h: 0.0544

## N#Cc1cnn2c(NC3CC3)cc(-c3cccs3)nc12
[1]
  logD: 2.88
[2]
  fraction unbound at 5 h: 0.016

## COc1ccc(-c2cc(Nc3ccn(C)n3)n3ncc(C#N)c3n2)cc1
[1]
  logD: 2.97
[2]
  fraction unbound at 5 h: 0.0179

## CC(=O)Nc1cnc2ccn(-c3cc(NC4CC4)n4ncc(C#N)c4n3)c2c1
[1]
  logD: 2.69
[2]
  fraction unbound at 5 h: 0.0251

## CC(=O)Nc1ccc2c(c1)N(c1cc(NC3CC3)n3ncc(C#N)c3n1)CC2
[1]
  logD: 3.3
[2]
  fraction unbound at 5 h: 0.0251

## CC(=O)Nc1ccc2ccn(-c3cc(NCCCCO)n4ncc(C#N)c4n3)c2c1
[1]
  logD: 2.58
[2]
  fraction unbound at 5 h: 0.0409

## CC(=O)Nc1ccc2ccn(-c3cc(NCCN4CCCC4)n4ncc(C#N)c4n3)c2c1
[1]
  logD: 2.24
[2]
  fraction unbound at 5 h: 0.0556

## N#Cc1cnn2c(NC3CC3)cc(-n3ccc4ccc(CO)cc43)nc12
[1]
  logD: 3.09
[2]
  fraction unbound at 5 h: 0.0191

## CS(=O)(=O)Cc1ccc2ccn(-c3cc(NC4CC4)n4ncc(C#N)c4n3)c2c1
[1]
  logD: 2.49
[2]
  fraction unbound at 5 h: 0.0179

## C[C@H](Nc1ccc2ncn(-c3cc(C4CC4)[nH]n3)c2n1)c1ncc(F)cn1
[1]
  logD: 2.74
[2]
  fraction unbound at 5 h: 0.212

## CC(C)Oc1cc(-n2cnc3cnc(N[C@@H](C)c4ncc(F)cn4)nc32)n[nH]1
[1]
  logD: 2.41
[2]
  fraction unbound at 5 h: 0.309

## Cc1c(Cl)ccc(OC2CCN(C[C@H](O)CNC(=O)c3c[nH]c(=O)cc3C(F)(F)F)CC2)c1Cl
[1]
  logD: 3.14
[2]
  fraction unbound at 5 h: 0.0335

## COc1cc(C(=O)NC[C@@H](O)CN2CCC(Oc3ccc(Cl)c(Cl)c3)CC2)ccc1N
[1]
  logD: 3.12
[2]
  fraction unbound at 5 h: 0.0032

## COCCNC(=O)c1ccc(Nc2ncc3cc(-c4ccncc4OC)ccc3n2)cc1
[1]
  logD: 3.14
[2]
  fraction unbound at 5 h: 0.002

## CC(=O)Nc1ccc(Nc2ncc3cc(-c4ccncc4)ccc3n2)cc1
[1]
  logD: 3.04
[2]
  fraction unbound at 5 h: 0.006

## C[C@@H](NC(=O)C1CCCCN1C)c1ccc(Nc2ncc3cc(-c4ccncc4)ccc3n2)cc1 (stereo partly drawn)
[1]
  logD: 3.34
[2]
  fraction unbound at 5 h: 0.0383

## C[C@@H](NC1=CC(=O)CNC1)c1ccc(Nc2ncc3cc(-c4ccncc4)ccc3n2)cc1
[1]
  logD: 2.49
[2]
  fraction unbound at 5 h: 0.0358

## C[C@H](CO)Nc1nc(SCc2cccc(F)c2F)nc2[nH]c(N)nc12
[1]
  logD: 3.22
[2]
  fraction unbound at 5 h: 0.0229

## C[C@H](CO)Nc1nc(SCc2ccccc2)nc2nc(N)sc12
[1]
  logD: 3.12
[2]
  fraction unbound at 5 h: 0.0457

## CC[C@@H](CO)Nc1nc(SCc2ccccc2)nc2nc(N)sc12
[1]
  logD: 2.99
[2]
  fraction unbound at 5 h: 0.0335

## CCNC(=O)Nc1nc2cc(-c3cccnc3)ccc2[nH]1
[1]
  logD: 2.34
[2]
  fraction unbound at 5 h: 0.0179

## Cc1ccc(NC(=O)c2ccc(Cl)c(C(F)(F)F)c2)cc1C(=O)Nc1cccnc1
[1]
  logD: 2.83
[2]
  fraction unbound at 5 h: 0.0119

## COc1cc2ncc(C(N)=O)c(Nc3ccc(F)cc3F)c2cc1N1CCN(C)CC1
[1]
  logD: 2.18
[2]
  fraction unbound at 5 h: 0.253

## COCCOc1cc2ncc(C(N)=O)c(Nc3ccc(C)cc3F)c2cc1N1CCN(C)CC1
[1]
  logD: 2.24
[2]
  fraction unbound at 5 h: 0.151

## CN1CCN(c2ccc3ncc(C(N)=O)c(Nc4ccc(F)cc4F)c3c2)CC1
[1]
  logD: 2.3
[2]
  fraction unbound at 5 h: 0.258

## CN1CCN(c2cc3c(Nc4ccc(F)cc4F)c(C(N)=O)cnc3cc2F)CC1
[1]
  logD: 2.63
[2]
  fraction unbound at 5 h: 0.244

## CCOc1cc2ncc(C(N)=O)c(Nc3ccc(F)cc3F)c2cc1N1CCC(O)CC1
[1]
  logD: 2.74
[2]
  fraction unbound at 5 h: 0.089

## CN1CCN(c2ccc3ncc(C(N)=O)c(Nc4ccc(Cl)cc4Cl)c3c2)CC1
[1]
  logD: 3.23
[2]
  fraction unbound at 5 h: 0.0179

## Cc1cc(Nc2nc(O[C@@H](C)c3ccc(F)cn3)c(C#N)nc2C)[nH]n1
[1]
  logD: 2.86
[2]
  fraction unbound at 5 h: 0.0594

## Cc1cc(Nc2nc(O[C@H](C)c3ccc(F)cn3)c(C#N)nc2C)[nH]n1
[1]
  logD: 2.72
[2]
  fraction unbound at 5 h: 0.0219

## Cc1c[nH]c(-c2cc(NC(=O)c3ccc(C(F)(F)F)nc3C)ccc2Cl)n1
[1]
  logD: 3.3
[2]
  fraction unbound at 5 h: 0.0391

## N#Cc1ccc2c(c1)NC(=O)C2c1ncnc2cc(OCCCN3CCOCC3)ccc12 (stereo not drawn)
[1]
  logD: 2.99
[2]
  fraction unbound at 5 h: 0.013

## Nc1ncnc2nc(-c3ccc(N4CCOCC4)nc3)cc(-c3cccc(Br)c3)c12
[1]
  logD: 3.2
[2]
  fraction unbound at 5 h: 0.0343
